Laboratory results taken from patent US20240246950A1, “Anilino-Pyrazole Derivatives, Compositions and Methods Thereof” (Ensem Therapeutics, priority 2022, published 2024).
Like-named read-outs stand apart in the source and are kept apart here.

Assays:
GSK3β [1] = target: T1, GSK3β (Homo sapiens, UniProt P49841); assay: In vitro kinase Caliper assay GSK3β; format: biochemical; details: enzyme 1 nM, 28° C. 30 min
Experimental: (§1) In Vitro Kinase Caliper Assays: CDK2/CycA2, CDK2/CycE1, CDK1/cyclinB and GSK3β
(§2) 1× Kinase buffer (50 mM HEPES pH 7.5, 10 mM MgCl2, 2 mM DTT and 0.01% Brij-35) The test compounds were prepared as 10 mM stock solution in 100% DMSO. The stock solution was then serially diluted 3-fold in 100% DMSO to 10 concentrations. 200 nL of each diluted compound solution was transferred to 384-well plate in duplicate. To each well, 10 μL of enzyme solution containing either CDK2/CycA2, CDK2/CycE1, CDK1/cyclinB, or GSK3β (final concentrations 10 nM, 3 nM, 1 nM, 1 nM respectively) in 1× Kinase buffer and the mix incubated at room temperature for 10 min. To initiate each reaction, 10 μL of peptide solution containing FAM-labelled peptide with final concentration at 3000 nM (FAM-P18 (5-FAM-QSPKKG-CONH2) for CDK2/CycA2, CDK2/CycE1, CDK1/cyclinB proteins, FAM-P15 (5-FAM-KRREILSRRPpSYR—COOH) for GSK30 protein) and ATP (final concentrations 30 μM, 77 μM or 20 μM, respectively) in 1× Kinase buffer was added to each well. All reactions were incubated at 28° C. for 30 min and then terminated by the addition of 30 μL stop buffer (100 mM HEPES pH 7.5, 50 mM EDTA, 0.2% Coating Reagent #3 and 0.015% Brij-35). All samples were then subjected to analysis using Caliper EZ Reader to read conversion values. IC50 values were then calculated by plotting dose-response curves and then using the XLfit application in Excel software.

CDK2/CycA2 [2] = target: T2, CDK2/CycA2 (Homo sapiens, UniProt P24941); assay: In vitro kinase Caliper assay CDK2/CycA2; format: biochemical; details: enzyme 10 nM, 28° C. 30 min, read-out: CDK2 cyclinA2 activity assay: IC50
Experimental: as §1, §2

CDK2/CycE1 [3] = target: T3, CDK2/CycE1 (Homo sapiens, UniProt P24941); assay: In vitro kinase Caliper assay CDK2/CycE1; format: biochemical; details: enzyme 3 nM, 28° C. 30 min, read-out: CDK2 cyclinE1 activity assay: IC50
Experimental: as §1, §2

CDK1/cyclinB [4] = target: T4, CDK1/cyclinB (Homo sapiens, UniProt P06493); assay: In vitro kinase Caliper assay CDK1/cyclinB; format: biochemical; details: enzyme 1 nM, 28° C. 30 min
T4 sequence (P06493 whole entry): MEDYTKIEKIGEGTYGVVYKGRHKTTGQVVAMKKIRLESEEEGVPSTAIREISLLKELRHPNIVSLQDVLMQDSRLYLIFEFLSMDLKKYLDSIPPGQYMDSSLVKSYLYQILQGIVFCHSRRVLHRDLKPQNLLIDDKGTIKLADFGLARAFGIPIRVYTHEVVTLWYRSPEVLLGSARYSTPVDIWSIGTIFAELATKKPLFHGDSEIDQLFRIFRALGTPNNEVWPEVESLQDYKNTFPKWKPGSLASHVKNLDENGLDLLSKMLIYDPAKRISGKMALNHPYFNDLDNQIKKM
T4 sequence (P14635 whole entry partner): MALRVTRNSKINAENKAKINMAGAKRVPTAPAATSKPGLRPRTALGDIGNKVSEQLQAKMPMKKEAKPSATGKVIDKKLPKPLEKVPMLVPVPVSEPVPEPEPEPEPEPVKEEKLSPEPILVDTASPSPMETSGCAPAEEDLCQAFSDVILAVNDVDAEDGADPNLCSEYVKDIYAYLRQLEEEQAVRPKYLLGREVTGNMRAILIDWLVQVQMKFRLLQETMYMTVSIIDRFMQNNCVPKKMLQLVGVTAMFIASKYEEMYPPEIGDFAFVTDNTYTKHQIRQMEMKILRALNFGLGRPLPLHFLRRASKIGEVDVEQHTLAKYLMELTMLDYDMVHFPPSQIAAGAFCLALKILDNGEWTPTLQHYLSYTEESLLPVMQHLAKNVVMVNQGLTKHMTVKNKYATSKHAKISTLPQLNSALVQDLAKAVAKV
Experimental: as §1, §2

TOV21G = assay: Cell proliferation (CyQUANT) TOV21G; format: cell-based; details: 7 days, read-out: Anti-proliferation assay: IC50 (nM) [Cell Line: TOV21G]
Procedure, shortened: (§3)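 Cells were seeded at 2500, 1000 or 3000 cells/well, cultured overnight, then exposed to 3-fold compound dilutions for 7 days (final DMSO at most 0.01%). CyQUANT fluorescence was read at Ex/Em 480/520 nm; % inhibition computed relative to same-plate DMSO wells.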

OVCAR3 = assay: Cell proliferation (CyQUANT) OVCAR3; format: cell-based; details: OVCAR3, 7 days, read-out: Anti-proliferation assay: IC50 (nM) [Cell Line: OVCAR3]
Procedure, shortened: as §3

CDK2/CycE1 [5] = target: T3, CDK2/CycE1; assay: In vitro kinase TR-FRET assay CDK2/CycE1; format: biochemical; details: enzyme 0.6 nM, ATP 82 μM, read-out: CDK2 cyclinE1 activity assay: IC50
Procedure, shortened: (§4)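 Enzymes at 3 nM (CDK2/CycA2), 0.6 nM (CDK2/CycE1), 0.3 nM (CDK1/cyclinB), 0.6 nM (GSK3β) with ATP at 27, 82, 56, 7.6 μM respectively, 50 nM ULight-4E-BP1 peptide, HEPES pH7.5; 10-point 3-fold dilutions. 1 h reaction at room temperature; Eu-anti-phospho-4E-BP1 TR-FRET (665/615 nm) read; IC50 from dose-response curves.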

CDK2/CycA2 [6] = target: T2, CDK2/CycA2; assay: In vitro kinase TR-FRET assay CDK2/CycA2; format: biochemical; details: enzyme 3 nM, ATP 27 μM, read-out: CDK2 cyclinA2 activity assay: IC50
Procedure, shortened: as §4

CDK1/cyclinB [7] = target: T4, CDK1/cyclinB; assay: In vitro kinase TR-FRET assay CDK1/cyclinB; format: biochemical; details: enzyme 0.3 nM, ATP 56 μM
Procedure, shortened: as §4

GSK3β [8] = target: T1, GSK3β; assay: In vitro kinase TR-FRET assay GSK3β; format: biochemical; details: enzyme 0.6 nM, ATP 7.6 μM
Procedure, shortened: as §4

T1 sequence (P49841 whole entry, species assumed): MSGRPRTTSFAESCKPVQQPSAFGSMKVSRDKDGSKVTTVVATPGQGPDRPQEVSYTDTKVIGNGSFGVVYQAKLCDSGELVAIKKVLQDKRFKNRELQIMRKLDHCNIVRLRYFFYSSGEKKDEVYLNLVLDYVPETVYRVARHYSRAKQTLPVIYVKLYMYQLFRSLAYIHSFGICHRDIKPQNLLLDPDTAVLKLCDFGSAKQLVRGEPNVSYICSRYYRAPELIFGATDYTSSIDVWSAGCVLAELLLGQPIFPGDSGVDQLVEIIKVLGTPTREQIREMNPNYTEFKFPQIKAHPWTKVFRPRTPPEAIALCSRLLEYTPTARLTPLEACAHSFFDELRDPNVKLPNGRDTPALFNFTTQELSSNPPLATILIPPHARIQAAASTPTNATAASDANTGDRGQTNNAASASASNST

Row | IC50 (GSK3β [1]) [nM] | IC50 (CDK2/CycA2 [2]) [nM] | IC50 (CDK2/CycE1 [3]) [nM] | IC50 (CDK1/cyclinB [4]) [nM] | IC50 (OVCAR3; Homo sapiens, OVCAR-3, 168 h) [nM] | IC50 (CDK2/CycE1 [5]) [nM] | IC50 (CDK2/CycA2 [6]) [nM] | IC50 (CDK1/cyclinB [7]) [nM] | IC50 (GSK3β [8]) [nM] | IC50 (OVCAR3) [nM] | Compound | IC50 (TOV21G; Homo sapiens, 168 h) [nM] | IC50 (TOV21G) [nM]
1 | 50 to 500 | < 50 | < 50 | 50 to 500 | ≥ 1000 | – | – | – | – | – | CC(C)NC(=O)O[C@@H]1CC[C@H](c2cc(Nc3ccc4c(=O)[nH]n(C)c4c3)n[nH]2)C1 [Example 1, (1R,3S)-3-(3-((1-methyl-3-oxo-2,3-dihydro-1H-indazol-6-yl)amino)-1H-pyrazol-5-yl)cyclopentyl isopropylcarbamate] | ≥ 1000 | –
2 | 500 to 1000 | < 50 | < 50 | < 50 | ≤ 500 | – | – | – | – | – | CC(C)NC(=O)O[C@@H]1CC[C@H](c2cc(Nc3ccc4c(c3)CCNS4(=O)=O)n[nH]2)C1 [Example 2, (1R,3S)-3-(3-((1,1-dioxido-3,4-dihydro-2H-benzo[e][1,2]thiazin-6-yl)amino)-1H-pyrazol-5-yl)cyclopentyl isopropylcarbamate] | ≥ 1000 | –
3 | 500 to 1000 | < 50 | < 50 | < 50 | ≤ 500 | – | – | – | – | – | CC(C)NC(=O)O[C@@H]1CC[C@H](c2cc(Nc3ccc4c(c3)CNS4(=O)=O)n[nH]2)C1 [Example 3, (1R,3S)-3-(3-((1,1-dioxido-2,3-dihydrobenzo[d]isothiazol-5-yl)amino)-1H-pyrazol-5-yl)cyclopentyl isopropylcarbamate] | ≥ 1000 | –
4 | – | – | – | – | ≤ 500 | < 50 | < 50 | 50 to 500 | 50 to 500 | – | CC(C)NC(=O)O[C@@H]1CC[C@H](c2cc(Nc3ccc(Cl)c4c3CCS4(=O)=O)n[nH]2)C1 [Example 64, (1R,3S)-3-(3-((7-chloro-1,1-dioxido-2,3-dihydrobenzo[b]thiophen-4-yl)amino)-1H-pyrazol-5-yl)cyclopentyl isopropylcarbamate] | ≥ 1000 | –
5 | – | – | – | – | ≤ 500 | < 50 | < 50 | 50 to 500 | 50 to 500 | – | Cc1ccc(Nc2cc([C@H]3CC[C@@H](OC(=O)NC(C)C)C3)[nH]n2)c2c1S(=O)(=O)CC2 [Example 65, (1R,3S)-3-(3-((7-methyl-1,1-dioxido-2,3-dihydrobenzo[b]thiophen-4-yl)amino)-1H-pyrazol-5-yl)cyclopentyl isopropylcarbamate] | 500 to 1000 | –
6 | – | – | – | – | ≤ 500 | < 50 | < 50 | < 50 | 50 to 500 | – | CC(C)NC(=O)O[C@@H]1CC[C@H](c2cc(Nc3ccc(F)c4c3CNS4(=O)=O)[nH]n2)C1 [Example 66, (1R,3S)-3-(5-((7-fluoro-1,1-dioxido-2,3-dihydrobenzo[d]isothiazol-4-yl)amino)-1H-pyrazol-3-yl)cyclopentyl isopropylcarbamate] | ≥ 1000 | –
7 | – | – | – | – | ≤ 500 | < 50 | < 50 | 50 to 500 | > 1000 | – | CC(C)NC(=O)O[C@@H]1CC[C@H](c2cc(Nc3ccc(F)c4c3CN(C)S4(=O)=O)n[nH]2)C1 [Example 67, (1R,3S)-3-{5-[(7-fluoro-2-methyl-1,1-dioxo-2,3-dihydro-1λ^6-benzo[2,1-d][1,2]thiazol-4-yl)amino]-2H-pyrazol-3-yl}cyclopentyl (prop-2-ylamino)methanoate] | ≥ 1000 | –
8 | – | – | – | – | ≤ 500 | < 50 | < 50 | < 50 | 50 to 500 | – | CC(C)(C)NC(=O)O[C@@H]1CC[C@H](c2cc(Nc3nccc4c3CCS4(=O)=O)n[nH]2)C1 [Example 68, (1R,3S)-3-(3-((1,1-dioxido-2,3-dihydrothieno[3,2-c]pyridin-4-yl)amino)-1H-pyrazol-5-yl)cyclopentyl tert-butylcarbamate] | ≤ 500 | –
9 | – | – | – | – | 500 to 1000 | < 50 | < 50 | 50 to 500 | > 1000 | – | CC(C)NC(=O)O[C@H]1CC[C@@H](c2cc(Nc3nccc4c3CCS4(=O)=O)n[nH]2)CC1 [Example 69, (1s,4s)-4-{5-[(1,1-dioxo-2,3-dihydro-1λ^6-thieno[3,2-c]pyridin-4-yl)amino]-1H-pyrazol-3-yl}cyclohexyl (prop-2-ylamino)methanoate] | ≥ 1000 | –
10 | – | – | – | – | ≤ 500 | < 50 | < 50 | < 50 | < 50 | – | CC(C)NC(=O)O[C@H]1C[C@@H](c2cc(Nc3nccc4c3CCS4(=O)=O)n[nH]2)C1 [Example 70, (1s,3s)-3-(3-((1,1-dioxido-2,3-dihydrothieno[3,2-c]pyridin-4-yl)amino)-1H-pyrazol-5-yl)cyclobutyl isopropylcarbamate] | ≤ 500 | –
11 | – | – | – | – | – | < 50 | < 50 | 50 to 500 | 500 to 1000 | ≤ 500 | (1s,4s)-4-{5-[(1,1-dioxo-2,3-dihydro-1λ^6-benzothiophen-5-yl)amino]-2H-pyrazol-3-yl}cyclohexyl (prop-2-ylamino)methanoate [Example 16] | – | ≥ 1000
